Assay results reported in patent US10696651B2, “Heterocyclic compound” (Takeda Pharmaceutical Company Limited, priority 2016, dated 2020).

Tests used:
[1] = test system: ATF4 expression in CCRF-CEM tumor; assay: In vivo ATF4 expression suppression assay (Western blot of CCRF-CEM xenograft tumor) in the presence of L-asparaginase; details: compound 10 mg/kg oral 8 hr before tumor removal, L-asparaginase 1000 U/kg s.c. 32 hr and 8 hr before, CCRF-CEM xenograft in SCID mouse
Text: One million human acute lymphoblastic leukemia cell lines CCRF-CEM obtained from ATCC (American Type Culture Collection) were suspended in Matrigel solution (Corning) and implanted subcutaneously into 6-week-old female SCID mouse (CLEA Japan, Inc.) by injection. The mice in which the tumor engrafted to a size of about 200-1000 mm^3 tumor volume after transplantation were selected and 3 mice per group were used for the experiment. L-asparaginase (Kyowa Hakko Kogyo Co., Ltd.) was subcutaneously administered at a dose of 1000 U/kg 32 hr and 8 hr before tumor removal. A 0.5% methylcellulose suspension of the compound was orally administered at a dose of 10 mg/kg 8 hr before tumor removal. After tumor removal, protein was extracted using Lysing Matrix I tube (MP Biomedicals) containing a protein extract (10% glycerol, 1% sodium dodecyl sulfate, 62.5 mM Tris-HCl [pH 7.5], protease and phosphatase inhibitors [Complete mini and PhosSTOP, Sigma-Aldrich Co. LLC.]) and subjected to Western blot.
Protein extract solution was subjected to protein quantification with BCA Protein Assay Kit (Thermo Scientific), electrophoresed on 7.5-15% SDS-PAGE gel (DRC), and protein in the gel was transferred to PVDF membrane. The membrane was blocked with Starting Block T20 (PBS) Blocking Buffer (Thermo Scientific). […] Thereafter, chemiluminescence was performed using ImmunoStar LD (Wako Pure Chemical Industries, Ltd.), and luminescence intensity was measured by LAS-3000 image analyzer (Fuji Film Co., Ltd.). Furthermore, the expression level of ATF4 was digitized by quantifying the luminescence intensity using Multi Gauge Ver. […]
Based on the ATF4 expression level of the control group orally administered with 0.5% methylcellulose suspension free of Example compound and the treatment group orally administered with Example compound suspension, the ATF4 expression inhibition ratio (%) of the test compound at a compound dose 10 mg/kg was calculated by the following formula and the results thereof are shown in Table 6. […]

[2] = test system: human acute lymphoblastic leukemia cells CCRF-CEM; assay: In vivo tumor proliferation inhibitory assay with combined use of asparaginase (CCRF-CEM xenograft); details: CCRF-CEM xenograft in SCID mouse; for in vivo tumor proliferation inhibitory rate (%), GCN2 inhibitor: GCN2 inhibitor alone
Text: One million human acute lymphoblastic leukemia cells CCRF-CEM obtained from ATCC (American Type Culture Collection) were suspended in Matrigel solution (Corning) and implanted subcutaneously into 6-week-old female SCID mouse (CLEA Japan, Inc.) by injection. The mice in which the tumor engrafted to a size of about 200 mm^3 tumor volume after transplantation were selected and 5 mice per group were used for the experiment. A 0.5% methylcellulose suspension of the compound was orally administered twice per day for 9 days. Each compound was administered twice per day and the dose was 10 mg/kg for Example 14 and Example 7, and 6 mg/kg for Example 4. L-asparaginase (Kyowa Hakko Kogyo Co., Ltd.) was subcutaneously administered once per day at a dose of 1000 U/kg. Tumor diameter was measured one day before start of the administration and day 9 of the administration, and the tumor volume was calculated by the formula 1. tumor volume=major axis×minor axis×minor axis×(½) Formula 1
Tumor proliferation inhibitory rate (%) was calculated by the formula 2. tumor proliferation inhibitory rate (%)=(1−(T9−T0)/(C9−C0))×100 Formula 2 T9: average tumor volume of test drug administration group on day 9 of administration, T0: average tumor volume of test drug administration group one day before start of administration, C9: average tumor volume of control group on day 9 of administration, C0: average tumor volume of control group one day before start of administration

Row | Structure (SMILES) | in vivo ATF4 expression inhibition ratio (%) [1] [%] | in vivo tumor proliferation inhibitory rate (%), GCN2 inhibitor ([2]; 6 mg/kg oral twice per day for 9 days) [%] | in vivo tumor proliferation inhibitory rate (%), combined use ([2]; compound 6 mg/kg oral twice per day for 9 days combined with L-asparaginase 1000 U/kg s.c. once per day) [%] | in vivo tumor proliferation inhibitory rate (%), GCN2 inhibitor ([2]; 10 mg/kg oral twice per day for 9 days) [%] | in vivo tumor proliferation inhibitory rate (%), combined use ([2]; compound 10 mg/kg oral twice per day for 9 days combined with L-asparaginase 1000 U/kg s.c. once per day) [%]
1 | Nc1ncc(C#Cc2c(F)ccc(NS(=O)(=O)c3cc(Cl)cc(CO)c3Cl)c2F)cn1 [Example 4, N-(3-((2-aminopyrimidin-5-yl)ethynyl)-2,4-difluorophenyl)-2,5-dichloro-3-(hydroxymethyl)benzenesulfonamide] | 76 | 2 | 60 | – | –
2 | COc1ncc(Cl)cc1S(=O)(=O)Nc1ccc(F)c(C#Cc2cnc(N)nc2)c1F [Example 7, N-(3-((2-aminopyrimidin-5-yl)ethynyl)-2,4-difluorophenyl)-5-chloro-2-methoxypyridine-3-sulfonamide] | 74 | – | – | 7 | 65
